Values after ≈ are worked out from the molar mass of the structure shown.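 In this assay, cells in 96-well plates receive the compound at five concentrations for 48 hours. Endpoints are linearly interpolated between the surrounding concentrations. GI50 = concentration required for 50% inhibition of growth. TGI: concentration producing complete growth inhibition.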
Experiments:
Test in all cases: NCI tumour cell line growth inhibition, 48 h
[1] = tested on: IGROV1 ovarian
[2] = tested on: OVCAR-8 ovarian
[3] = tested on: RXF 393 renal
[4] = tested on: SF-295 CNS
[5] = tested on: U251 CNS
[6] = tested on: SK-OV-3 ovarian
[7] = tested on: MOLT-4 leukemia
[8] = tested on: HCT-15 colon
[9] = tested on: DU-145 prostate
[10] = tested on: M14 melanoma

Row | Structure (SMILES) | TGI [1] | TGI [2] | TGI [3] | TGI [4] | TGI [5] | TGI [6] | TGI [7] | TGI [8] | TGI [9] | TGI [10] | GI50 [9] [µg/mL] | GI50 [1] [µg/mL] | GI50 [2] [µg/mL] | GI50 [10] [µg/mL] | GI50 [3] [µg/mL] | GI50 [4] [µg/mL] | GI50 [5] [µg/mL] | GI50 [6] [µg/mL] | GI50 [7] | GI50 [8] [µg/mL]
1 | Cc1c2ccncc2cc2c1[nH]c1ccccc12 | 65.2 µM | 16.2 µM | 7.35 µM | 16.9 µM | 7.65 µM | 26.1 µM | 6.59 µM | 28.1 µM | – | – | – | – | – | – | – | – | – | – | – | –
2 | Nc1[nH]nc(Nc2ccc(Cl)cc2)c1P(=O)(c1ccccc1)c1ccccc1 | 55.2 µM | 46.4 µM | 53.9 µM | 44.5 µM | > 100 µM | > 100 µM | > 100 µM | 98.4 µM | 86.5 µM | 54.6 µM | – | – | – | – | – | – | – | – | – | –
3 | CC(=O)Nc1ccc(C(=O)NN2C(=O)C(Cl)/C2=C/c2ccco2)cc1 (configuration not stated) | > 100 µM | > 100 µM | – | > 100 µM | > 100 µM | > 100 µM | > 100 µM | – | – | – | – | – | – | – | – | – | – | – | – | –
4 | CC(=O)c1c(C)nc(SSc2nc(C)c(C(C)=O)c(-c3ccc(Cl)cc3)c2C#N)c(C#N)c1-c1ccc(Cl)cc1 | > 150 µg/mL | > 150 µg/mL | 78.4 µg/mL | > 150 µg/mL | > 150 µg/mL | > 150 µg/mL | > 150 µg/mL | > 150 µg/mL | > 150 µg/mL | > 150 µg/mL | 140 (≈ 232 µM) | 88.1 (≈ 146 µM) | 79.2 (≈ 131 µM) | 81.5 (≈ 135 µM) | 22.5 (≈ 37.2 µM) | 50.2 (≈ 83.1 µM) | 53.6 (≈ 88.8 µM) | 29.3 (≈ 48.6 µM) | 134 µg/mL | > 150
5 | CC(=O)OCC1OC(n2cc(F)c(=O)[nH]c2=O)C(NC(=O)OCc2ccccc2)C(OC(C)=O)C1OC(C)=O (configuration not stated) | > 100 µM | > 100 µM | > 100 µM | > 100 µM | > 100 µM | > 100 µM | > 100 µM | > 100 µM | – | – | – | – | – | – | – | – | – | – | – | –
6 | CCP(=O)(CC)C(Cl)Cl | > 100 µM | > 100 µM | – | > 100 µM | > 100 µM | > 100 µM | > 100 µM | > 100 µM | > 100 µM | > 100 µM | – | – | – | – | – | – | – | – | – | –
7 | COc1cc(C(C)O)c(S(=O)(=O)CC(C)O)nn1 (configuration not stated) | > 100 µM | > 100 µM | > 100 µM | > 100 µM | – | > 100 µM | > 100 µM | > 100 µM | > 100 µM | > 100 µM | – | – | – | – | – | – | – | – | – | –
8 | O=C(N/N=C/c1cc(Cl)cc(Cl)c1[O-])c1ccccc1O.O=C(N/N=C/c1cc(Cl)cc(Cl)c1[O-])c1ccccc1O.[Co+2] | 6.97 µM | 11.6 µM | 8.46 µM | 12.9 µM | 3.73 µM | 6.45 µM | 15.7 µM | 13.8 µM | – | 2.95 µM | – | – | – | – | – | – | – | – | 0.23 µM | –
9 | O=C1CC2CC3OC3[C@H]3c4cc5c(cc4C(=O)N1C23)OCO5 (some centres not stated) | > 100 µM | > 100 µM | – | > 100 µM | – | > 100 µM | > 100 µM | > 100 µM | – | > 100 µM | – | – | – | – | – | – | – | – | – | –
